Tests used:
MCF7 = assay: MTT assay, MCF7 breast cancer cells; type: cell-based; conditions: for IC50: MCF7, 72 h; for inhibition at 1 µM / inhibition at 10 µM / inhibition at 100 µM / % cell growth inhibition: 72 h; for inhibition at 1 µM / inhibition at 10 µM / inhibition at 100 µM: read-out: % cell growth inhibition
Text: (§1) An MTT assay was used to evaluate the final compounds’ anticancer activity against MCF7 and T47D (breast cancer cells), HSC3 (head and neck cancer cells), and RKO (colorectal cancer cells) cell lines, using cisplatin as a reference standard. Table 1 presents the percentage growth inhibition of all compounds against the various cancer cell lines.
(§2) The cancer cell lines MCF7 and T47D (breast cancer cells), HSC3 (head and neck cancer cells), and RKO (colorectal cancer cells) were kindly provided by Prof. Stephan Feller, Institute of Molecular Medicine, Martin Luther University, Halle, Germany. The human fibroblast (PDL) cell line was obtained as a kind gift from Prof. Khaled Al-Qaoud (Yarmouk University, Irbid, Jordan). All cell lines were cultured in Dulbecco’s Modified Eagle’s Medium (DMEM) supplemented with 10% fetal bovine serum, 100 µg/mL streptomycin, 100 U/mL penicillin, and 1% non-essential amino acid at 37 °C with 5% CO2 in a humidified CO2 incubator. The cell cultures were grown to confluence, and the medium was changed two times weekly.
(§3) The MTT (3-[4,5-dimethylthiazol-2-yl]-2,5-diphenyl tetrazolium bromide) assay was used to investigate cell viability and to calculate the half-maximal inhibitory concentration (IC50) values of the compounds 6(a–k) including standard reference cisplatin. Furthermore, […] stock solutions of the compounds were prepared in DMSO where all compounds were completely soluble. Cells were seeded in 96-well tissue culture plates at a density of 6,000 cells/well for MCF7, T47D, and PDL cells and at a density of 4000 cells/well for RKO and HSC3 cells. After 24 h of seeding, investigated cells were treated with three concentrations (1, 10, and 100 µm) of the compounds for 72 h. At the end of the treatment time, the supernatant medium was aspirated, and 50 µL of fresh DMEM containing MTT (0.5 mg/mL) was added to each well. Cells were then incubated at 37 °C for 2–4 h. After that, the medium was completely removed, and 50 µL of DMSO was added to each well to dissolve the precipitated formazan crystals formed by viable cells. Cell viability, represented by the absorbance of the formazan solution, was measured at 570 nm using the Synergy HTX Multimode Reader (BioTek, Vermont, USA), and cell viability was determined as described in the literature. For each concentration, the relative cell viability was calculated as follows: relative cell viability = (mean treatment absorbance/mean control absorbance) × 100%. Assays were performed in triplicate on three independent experiments. […] IC50 values were then calculated using the four-parameter logistic function in the SigmaPlot software (version 12.5) and presented as the mean ± SD from three independent experiments.

T47D = assay: MTT assay, T47D breast cancer cells; type: cell-based; conditions: 72 h; for inhibition at 1 µM / inhibition at 10 µM / inhibition at 100 µM: read-out: % cell growth inhibition
Text: as §1, §2, §3

HSC3 = assay: MTT assay, HSC3 head and neck cancer cells; type: cell-based; conditions: for inhibition at 1 µM / inhibition at 10 µM / inhibition at 100 µM: HSC-3, 72 h, read-out: % cell growth inhibition; for inhibition at 1 µM / inhibition at 10 µM / inhibition at 100 µM / % cell growth inhibition: 72 h; for IC50: HSC3, 72 h
Text: as §1, §2, §3

RKO = assay: MTT assay, RKO colorectal cancer cells; type: cell-based; conditions: 72 h; for inhibition at 1 µM / inhibition at 10 µM / inhibition at 100 µM: read-out: % cell growth inhibition
Text: as §1, §2, §3

PDL = assay: MTT assay, normal fibroblast cell line (PDL); type: cell-based, human; conditions: 72 h; for IC50: PDL normal fibroblasts
Text: To understand the selectivity of compounds, a normal fibroblast cell line (human periodontal ligament-PDL) is also included in this IC50 determination.
as §2, §3

Structure (SMILES) | inhibition at 1 µM (MCF7; Homo sapiens, MCF7, 1 µM) | inhibition at 10 µM (MCF7; Homo sapiens, MCF7, 10 µM) | inhibition at 100 µM (MCF7; Homo sapiens, MCF7, 100 µM) | inhibition at 1 µM (T47D; Homo sapiens, 1 µM) | inhibition at 10 µM (T47D; Homo sapiens, 10 µM) | inhibition at 100 µM (T47D; Homo sapiens, 100 µM) | inhibition at 1 µM (HSC3; Homo sapiens, HSC3, 1 µM) | inhibition at 10 µM (HSC3; Homo sapiens, HSC3, 10 µM) | inhibition at 100 µM (HSC3; Homo sapiens, HSC3, 100 µM) | inhibition at 1 µM (RKO; Homo sapiens, 1 µM) | inhibition at 10 µM (RKO; Homo sapiens, 10 µM) | inhibition at 100 µM (RKO; Homo sapiens, 100 µM) | other results
CCOC(=O)c1c(NC(=O)CN2CCCCC2)sc2c1CCN(C(=O)OCC)C2 [6a] | 2.96% | 39.5% | 91.6% | 9.31% | 38.6% | 88.1% | 4.26% | 59.8% | 92.6% | 5.71% | 53% | 93.5% | IC50 (MCF7; Homo sapiens): 73.7 ± 4.3 µM; % cell growth inhibition (MCF7; MCF7, 1 µM): weak inhibition; IC50 (T47D; Homo sapiens): 97.2 ± 4.4 µM; IC50 (HSC3; Homo sapiens, HSC-3): 14.5 ± 4.3 µM; IC50 (RKO; Homo sapiens): 24.4 ± 7.2 µM; IC50 (PDL; Homo sapiens, Fibroblast): > 100 µM; toxicity to normal fibroblast cell lines, PDL (PDL; PDL): no toxicity
CCOC(=O)c1c(NC(=O)CN2CCC(C)CC2)sc2c1CCN(C(=O)OCC)C2 [6b, Diethyl 2-(2-(4-methylpiperidin-1-yl)acetamido)-4,7-dihydrothieno[2,3-c]pyridine-3,6-(5H)-dicarboxylate] | 2.74% | 29.7% | 83.2% | 7.79% | 24.4% | 82% | 4.06% | 38% | 79.4% | 10.7% | 39.3% | 94.1% | 
CCOC(=O)c1c(NC(=O)CN2CCNCC2)sc2c1CCN(C(=O)OCC)C2 [6c, Diethyl 2-(2-(piperazin-1-yl)acetamido)-4,7-dihydrothieno[2,3-c]pyridine-3,6(5H)-dicarboxylate] | 0% | 22.1% | 81% | 3.7% | 28.1% | 80.8% | 6.71% | 30% | 83.4% | 17.1% | 30.9% | 93.6% | 
CCOC(=O)c1c(NC(=O)CN2CCN(C)CC2)sc2c1CCN(C(=O)OCC)C2 [6d, Diethyl 2-(2-(4-methylpiperazin-1-yl)acetamido)-4,7-dihydrothieno[2,3-c]pyridine-3,6-(5H)-dicarboxylate] | 1.42% | 3.7% | 79.3% | 0% | 2.54% | 82.1% | 0% | 0% | 83.9% | 0% | 0% | 94.4% | 
CCOC(=O)c1c(NC(=O)CN2CCN(CC)CC2)sc2c1CCN(C(=O)OCC)C2 [6e, Diethyl 2-(2-(4-ethylpiperazin-1-yl)acetamido)-4,7-dihydrothieno[2,3-c]pyridine-3,6(5H)-dicarboxylate] | 4.67% | 11.7% | 74.2% | 5.23% | 3.12% | 79.4% | 3.26% | 5.51% | 75.8% | 6.17% | 7.24% | 90.1% | 
CCOC(=O)c1c(NC(=O)CN2CCN(C(=O)OC(C)(C)C)CC2)sc2c1CCN(C(=O)OCC)C2 [6f, Diethyl 2-(2-(4-(tert-butoxycarbonyl)piperazin-1-yl)acetamido)-4,7-dihydrothieno[2,3-c]-pyridine-3,6(5H)-dicarboxylate] | 7.34% | 10% | 39% | 7.62% | 16.2% | 34.1% | 0% | 16.8% | 45.8% | 6.11% | 17.2% | 47.6% | % cell growth inhibition (MCF7; MCF7, 100 µM): weaker inhibition
CCOC(=O)c1c(NC(=O)CN2CCN(c3ccccc3OC)CC2)sc2c1CCN(C(=O)OCC)C2 [6g, Diethyl 2-(2-(4-(2-methoxyphenyl)piperazin-1-yl)acetamido)-4,7-dihydrothieno[2,3-c]-pyridine-3,6(5H)-dicarboxylate] | 3.4% | 6.36% | 57.3% | 0% | 14.2% | 59.9% | 0% | 15.9% | 56.9% | 0.53% | 14.6% | 68.4% | % cell growth inhibition (MCF7; MCF7, 100 µM): weaker inhibition
CCOC(=O)c1c(NC(=O)CN2CCOCC2)sc2c1CCN(C(=O)OCC)C2 [6h, Diethyl 2-(2-morpholinoacetamido)-4,7-dihydrothieno[2,3-c]pyridine-3,6(5H)-di-carboxylate] | 0% | 20.3% | 77.2% | 0% | 17.8% | 78.2% | 0% | 9.88% | 77.9% | 8.76% | 19.1% | 93.3% | 
CCOC(=O)c1c(NC(=O)CN2CCN(C(=O)c3ccco3)CC2)sc2c1CCN(C(=O)OCC)C2 [6j, Diethyl 2-(2-(4-(furan-2-carbonyl)piperazin-1-yl)acetamido)-4,7-dihydrothieno[2,3-c]-pyridine-3,6(5H)-dicarboxylate] | 0% | 16.2% | 76.5% | 0% | 1.19% | 76% | 0% | 29.9% | 86.4% | 0% | 17.3% | 96.8% | 
CCOC(=O)c1c(NC(=O)CN2CCN(c3ncccn3)CC2)sc2c1CCN(C(=O)OCC)C2 [6k, Diethyl 2-(2-(4-(pyrimidin-2-yl)piperazin-1-yl)acetamido)-4,7-dihydrothieno[2,3-c]-pyridine-3,6(5H)-dicarboxylate] | 0% | 12.2% | 80% | 0% | 10.1% | 76.5% | 0% | 11.3% | 86.2% | 0% | 22.2% | 96.1% | 
N.N.[Cl][Pt][Cl] [Cisplatin, reference compound] |  |  |  |  |  |  |  |  |  |  |  |  | % cell growth inhibition (MCF7; MCF7, 1 µM): 11.23%; % cell growth inhibition (MCF7; MCF7, 10 µM): 57.32%; % cell growth inhibition (MCF7; MCF7, 100 µM): 97.41%; IC50 (MCF7): 5.8 ± 0.9 µM; % cell growth inhibition (T47D; 1 µM): 29.09%; % cell growth inhibition (T47D; 10 µM): 89.65%; % cell growth inhibition (T47D; 100 µM): 98.20%; IC50 (T47D): 2.6 ± 0.6 µM; % cell growth inhibition (HSC3; HSC3, 1 µM): 29.33%; % cell growth inhibition (HSC3; HSC3, 10 µM): 84.74%; % cell growth inhibition (HSC3; HSC3, 100 µM): 97.87%; IC50 (HSC3): 2.7 ± 0.2 µM; % cell growth inhibition (RKO; 1 µM): 46.06%; % cell growth inhibition (RKO; 10 µM): 92.77%; % cell growth inhibition (RKO; 100 µM): 95.04%; IC50 (RKO): 1.7 ± 0.4 µM; IC50 (PDL): 15.5 ± 2.1 µM

From PMC11858597, “Synthesis, Anticancer Screening, and In Silico Evaluations of Thieno[2,3-c]pyridine Derivatives as Hsp90 Inhibitors” (Pharmaceuticals, 2025)
